The values that follow come from patent publication US20210315175A1, “METHODS OF MAKING FEMINIZED CANNABIS SATIVA SEED AND COMPOSITIONS THEREOF” (priority 2019, published 2021).

For data set [1], the system named is genetically female Cannabis ssp plants. Kind of data set: 1-MCP root drench: induction of male flowers (Example 19). The data set is classed as in vivo. To be noted: 0.27 mM or 0.54 mM 1-MCP root drench, three treatments, 3 varieties. Here is the method:
To determine if the ethylene inhibitor 1-Methylcyclopropene (1-MCP) can induce male flowers on genetically female Cannabis ssp plants, 1-MCP was applied at two different rates to 3 different varieties, with 2 replicates per treatment. The plants were treated with 1-MCP three times, with the first treatment 51 days after seeding, which was on the day plants were transitioned from a vegetative, long day photoperiod (18 h day) to a reproductive, short day photoperiod (12 h day), the second treatment was applied 7 days later and the third treatment was 8 days after the second. For the first two treatments the low rate was 0.27 mM 1-MCP and 25 ml solution per plant was immediately applied as a root drench. The high rate was 0.54 mM and similarly, 25 ml of solution was applied as a root drench. For the third treatment, the dose was doubled by applying 50 ml of the solutions described above, as the plants were larger.

The test system is the same in data set [2]. Kind of data set: AIB root drench: induction of male flowers and phytotoxicity (Example 21). In kind it is in vivo. The protocol: To determine if the ethylene inhibitor 2-Aminoisobutyric acid (AIB) can induce male flowers on genetically female Cannabis ssp plants, three different rates of 2-Aminoisobutyric acid (AIB) were applied to plants as a root drench, with two applications per rate. The first application occurred 79 days after seeding, which was on the day plants were transitioned from a vegetative, long day photoperiod (18 h day) to a reproductive, short day photoperiod (12 h day), and the second treatment was applied 5 days later. The stem diameter of the plants on the day of the first treatment were 9 to 10 mm and the plants ranged from 37 to 54 cm in height. The three rates tested were 50, 150 and 300 mM AIB in water, and 150 ml of solution was applied to the roots as a soil drench.

Take `CC1=CC1` [1-MCP, 1-Methylcyclopropene]: in data set [1], the chlorosis entry was “mild chlorosis of growing apices” and the male structures entry is given as “no clear or consistent male structures were observed in any of the treatments”.
For `CC(C)(N)C(=O)O` [AIB, 2-Aminoisobutyric acid], in data set [2] (50 and 150 mM AIB, two root drenches), the “survival and male structures” value is “survived and produced small male structures that did not produce viable pollen”. Moreover, the phytotoxicity entry in data set [2] (after the second treatment, particularly in the highest rate) is recorded as “more severe phototoxicity”. Besides, the plant survival result in data set [2] (highest rate (300 mM AIB), two root drenches) was “the plant ultimately died”. Moreover, the “phytotoxicity in leaf and meristematic tissues” value in data set [2] (within 2 days of the first treatment, 50, 150 and 300 mM AIB, 150 ml root drench) is given as “Mild phytotoxicity”.
